Tests used:
RIPK1 = biological target: T1, RIPK1 (Homo sapiens, UniProt Q13546); assay: RIPK1 ADP-Glo biochemical kinase assay; conditions: read-out: RIPK1 ADP-Glo Kinase (IC50)
T1 sequence (Q13546 1-671): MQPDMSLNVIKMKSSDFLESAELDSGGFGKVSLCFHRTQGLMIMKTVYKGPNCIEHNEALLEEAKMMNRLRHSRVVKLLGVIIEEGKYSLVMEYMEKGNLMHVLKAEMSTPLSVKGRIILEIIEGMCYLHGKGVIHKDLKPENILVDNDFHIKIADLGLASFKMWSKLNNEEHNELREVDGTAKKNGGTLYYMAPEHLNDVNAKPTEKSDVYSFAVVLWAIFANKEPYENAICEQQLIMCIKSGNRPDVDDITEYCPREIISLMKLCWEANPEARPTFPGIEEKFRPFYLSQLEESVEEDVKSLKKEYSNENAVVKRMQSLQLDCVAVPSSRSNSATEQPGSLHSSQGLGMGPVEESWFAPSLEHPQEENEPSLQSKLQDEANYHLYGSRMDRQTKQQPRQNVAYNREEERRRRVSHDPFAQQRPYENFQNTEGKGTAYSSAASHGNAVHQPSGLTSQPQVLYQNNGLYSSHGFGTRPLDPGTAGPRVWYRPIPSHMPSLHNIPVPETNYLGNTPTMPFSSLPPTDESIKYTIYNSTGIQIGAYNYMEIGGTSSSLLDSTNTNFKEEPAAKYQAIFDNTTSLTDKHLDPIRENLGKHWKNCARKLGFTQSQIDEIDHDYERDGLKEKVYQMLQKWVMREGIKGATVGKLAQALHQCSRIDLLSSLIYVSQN
Description: In this example, compounds of the disclosure were evaluated using a biochemical assay using the ADP-Glo™ technology.
ADP-Glo™ (Promega, Madison, WI, USA) reagents were thawed at ambient temperature. Kinase Detection Reagent was prepared by mixing kinase detection buffer with the lyophilized kinase detection substrate.
A […] stock volume of 5× Reaction Kinase Buffer was made by mixing 1000 μl of 1M MgCl2, 500 μl of 1M Tris-HCL pH7.4, 0.5 mg/ml (25 mg) of BSA, and 3475 μl of distilled H2O. A 3 ml 2× working stock volume of Reaction Kinase Buffer was made containing a final concentration of 100 μM DTT and 4 mM MnCl2.
Components of RIPK1 enzyme (Rigel Pharmaceuticals, South San Francisco, CA, USA) were thawed on ice. Diluted RIPK1 was prepared in 1× Kinase Reaction Buffer (diluted from 2× buffer) to 31 ng/well.
1.0 ul of diluted compound was added to a 384 well plate in duplicate. […] The final reaction volume was 5.0 μl.
The plate was quickly centrifuged and the reaction was incubated at 30° C. for 30 minutes. Adding 5 μl of ADP-Glo™ terminated the reaction. The plate was quickly centrifuged and the reaction was incubated at room temperature for 40 minutes. Kinase Detection Reagent was then added and incubated at room temperature for 30 minutes. The relative light unit (RLU) of kinase reaction was determined by luminescent (Luminescence 0.1 s) using a Wallac Victor2 Luminometer (PerkinElmer, Waltham, MA, USA).

L929 cells = assay: L929 cell necroptosis assay (TNFa + zVAD, CellTiter-Glo recovery); assay type: cell-based, murine; design: L929-CTG-recovery, L929, TNFa + zVAD (IC50): unit not given here; conditions: TNFa 2 ng/mL + zVAD-fmk; for IC50: Mus musculus, L929, 18 h, read-out: L929-CTG-recovery, L929, TNFa + zVAD (IC50); for L929-CTG-recovery, L929, TNFa + zVAD (IC50): 18 hours
Description: (§1) In this example, U937 and L929 cells were exposed to compounds of the present disclosure and a cell necroptosis assay was conducted to evaluate the compounds' activity against human RIP1 and murine RIP1.
(§2) U937 and L929 cells were obtained from the American Type Culture Collection (Manassas, VA, USA). Both cells were maintained in logarithmic growth phase in complete RPMI 1640 media (Sigma, ST Louis, MO, USA) supplemented with 10% fetal bovine serum (Sigma, ST Louis, MO, USA) at 37° C. with 5% CO2. For necroptosis assay, L929 cells were plated for 18 h in 100 μL/well medium at 10K cells/well in Costar 96-well black clear-bottom plates (Fisher Scientific, Hampton, NH, USA); U937 cells were plated on the day of the assay in 50 μL/well medium containing 60 uM zVAD-fmk (Lonza, Basel, Switzerland) at 50K cells/well. Medium from L929 cells were removed from the 96-well plates and replaced with 50 μL/well new medium containing 40 uM zVAD-fmk. Each compound of the present disclosure evaluated in this example was serially diluted in DMSO from 2.5 mM in 4-fold dilutions, and then diluted 1:125 in complete medium. 50 μL/well 2× of the compound was then added to the cells in the plates. The cells were pre-incubated with the compound for 1 hour at 37° C. with 5% CO2 and before addition of 10 μL/well 11×TNFa (Peprotech, Rocky Hill, NJ, USA) to give a final concentration of 2 ng/mL for TNFa. The relative amount of necroptosis cells was determined by luminescent using a Wallac Victor2 Luminometer (PerkinElmer, Waltham, MA, USA) and a CellTiter-Glo® Luminescent Cell Viability Reagent Assay (Promega, Madison, WI, USA) added per manufacturer instructions after 18 hours of TNFa stimulation at 37° C. with 5% CO2. This example establishes that embodiments of the compounds described herein have unexpectedly potent activity against human RIP1 and murine RIP1, which allows their assessment in in vivo mouse models of disease.

U937 cells = assay: U937 cell necroptosis assay (TNFa + zVAD, CellTiter-Glo recovery); assay type: cell-based; conditions: Homo sapiens, U-937, 18 h, TNFa 2 ng/mL + zVAD-fmk, read-out: U937 Zvad TNF CTG Recovery, U937, TNFa + zVAD (IC50)
Description: as §1, §2

CN1C(=O)[C@@H](NC(=O)n2cc(Cc3cccc(F)n3)cn2)COc2ccc(C#CC(O)C(F)(F)F)cc21 (mixture of isomers) [I-105, (±)-4-((6-Fluoropyridin-2-yl)methyl)-N-((3S)-5-methyl-4-oxo-7-(4,4,4-trifluoro-3-hydroxybut-1-yn-1-yl)-2,3,4,5-tetrahydrobenzo[b][1,4]oxazepin-3-yl)-1H-pyrazole-1-carboxamide]
IC50 (RIPK1): 16.8 nM | IC50 (L929 cells): 1540 nM | IC50 (U937 cells): 8.6 nM

CN1C(=O)[C@@H](NC(=O)n2cc(Cc3cccc(F)n3)cn2)COc2ccc(C#CC(C)(C)O)cc21 [I-1, (S)-4-((6-Fluoropyridin-2-yl)methyl)-N-(7-(3-hydroxy-3-methylbut-1-yn-1-yl)-5-methyl-4-oxo-2,3,4,5-tetrahydrobenzo[b][1,4]oxazepin-3-yl)-1H-pyrazole-1-carboxamide]
IC50 (RIPK1): 20.6 nM | IC50 (L929 cells): 2300 nM | IC50 (U937 cells): 11.4 nM

Cc1cccc(Cc2cnn(C(=O)N[C@H]3COc4ccc(C#CC(C)(C)O)cc4N(C)C3=O)c2)n1 [I-2, (S)—N-(7-(3-Hydroxy-3-methylbut-1-yn-1-yl)-5-methyl-4-oxo-2,3,4,5-tetrahydrobenzo[b][1,4]oxazepin-3-yl)-4-((6-methylpyridin-2-yl)methyl)-1H-pyrazole-1-carboxamide]
IC50 (RIPK1): 42.2 nM | IC50 (L929 cells): 1800 nM | IC50 (U937 cells): 49.7 nM

Cc1ccc(Oc2ccnc(C(=O)N[C@H]3COc4ccc(C#CC5(O)COC5)cc4N(C)C3=O)c2)cn1 [I-3, (S)—N-(7-((3-hydroxyoxetan-3-yl)ethynyl)-5-methyl-4-oxo-2,3,4,5-tetrahydrobenzo[b][1,4]oxazepin-3-yl)-4-((6-methylpyridin-3-yl)oxy)picolinamide]
IC50 (RIPK1): 28.9 nM | IC50 (L929 cells): 3850 nM | IC50 (U937 cells): 152 nM

Cc1ccc(Oc2ccnc(C(=O)N[C@H]3COc4ccc(C#CC(C)(C)O)cc4N(C)C3=O)c2)cn1 [I-4, (S)—N-(7-(3-hydroxy-3-methylbut-1-yn-1-yl)-5-methyl-4-oxo-2,3,4,5-tetrahydrobenzo[b][1,4]oxazepin-3-yl)-4-((6-methylpyridin-3-yl)oxy)picolinamide]
IC50 (RIPK1): 55.3 nM | IC50 (L929 cells): 7060 nM | IC50 (U937 cells): 361 nM

CN1C(=O)[C@@H](NC(=O)c2cc(Oc3ccc(F)nc3)ccn2)COc2ccc(C#CC3(O)COC3)cc21 [I-5, (S)-4-((6-fluoropyridin-3-yl)oxy)-N-(7-((3-hydroxyoxetan-3-yl)ethynyl)-5-methyl-4-oxo-2,3,4,5-tetrahydrobenzo[b][1,4]oxazepin-3-yl)picolinamide]
IC50 (RIPK1): 24.6 nM | IC50 (L929 cells): 2020 nM | IC50 (U937 cells): 34.9 nM

CN1C(=O)[C@@H](NC(=O)c2cc(Oc3ccc(F)nc3)ccn2)COc2ccc(C#CC(C)(C)O)cc21 [I-6, (S)-4-((6-fluoropyridin-3-yl)oxy)-N-(7-(3-hydroxy-3-methylbut-1-yn-1-yl)-5-methyl-4-oxo-2,3,4,5-tetrahydrobenzo[b][1,4]oxazepin-3-yl)picolinamide]
IC50 (RIPK1): 40.9 nM | IC50 (L929 cells): 3420 nM | IC50 (U937 cells): 49.6 nM

CN1C(=O)[C@@H](NC(=O)c2cc(Cc3cccc(F)n3)ccn2)COc2ccc(C#CC3(O)COC3)cc21 [I-7, (S)-4-((6-fluoropyridin-2-yl)methyl)-N-(7-((3-hydroxyoxetan-3-yl)ethynyl)-5-methyl-4-oxo-2,3,4,5-tetrahydrobenzo[b][1,4]oxazepin-3-yl)picolinamide]
IC50 (RIPK1): 18.6 nM | IC50 (L929 cells): 449 nM | IC50 (U937 cells): 14.8 nM

CN1C(=O)[C@@H](NC(=O)n2cc(Cc3ccccn3)cn2)COc2ccc(Br)cc21 [I-18, (S)—N-(7-Bromo-5-methyl-4-oxo-2,3,4,5-tetrahydrobenzo[b][1,4]oxazepin-3-yl)-4-(pyridin-2-ylmethyl)-1H-pyrazole-1-carboxamide]
L929-CTG-recovery, L929, TNFa + zVAD (IC50) (L929 cells): 5013 | IC50 (U937 cells): 286 nM

CN1C(=O)[C@@H](NC(=O)n2cc(Cc3cccc(F)n3)cn2)COc2ccc(Br)cc21 [I-20, (S)—N-(7-Bromo-5-methyl-4-oxo-2,3,4,5-tetrahydrobenzo[b][1,4]oxazepin-3-yl)-4-((6-fluoropyridin-2-yl)methyl)-1H-pyrazole-1-carboxamide]
L929-CTG-recovery, L929, TNFa + zVAD (IC50) (L929 cells): 5004 | IC50 (U937 cells): 50.2 nM

CN1C(=O)[C@@H](NC(=O)n2cc(Cc3cccc(C(F)(F)F)n3)cn2)COc2ccc(Br)cc21 [I-21, (S)—N-(7-Bromo-5-methyl-4-oxo-2,3,4,5-tetrahydrobenzo[b][1,4]oxazepin-3-yl)-4-((6-(trifluoromethyl)pyridin-2-yl)methyl)-1H-pyrazole-1-carboxamide]
IC50 (L929 cells): 30400 nM | IC50 (U937 cells): 1370 nM

CN1C(=O)[C@@H](NC(=O)n2cc(Cc3cccnc3)cn2)COc2ccc(Br)cc21 [I-22, (S)—N-(7-Bromo-5-methyl-4-oxo-2,3,4,5-tetrahydrobenzo[b][1,4]oxazepin-3-yl)-4-(pyridin-3-ylmethyl)-1H-pyrazole-1-carboxamide]
L929-CTG-recovery, L929, TNFa + zVAD (IC50) (L929 cells): 5004 | IC50 (U937 cells): 35.1 nM

CN1C(=O)[C@@H](NC(=O)n2cc(Cc3ccncc3)cn2)COc2ccc(Br)cc21 [I-28, (S)—N-(7-Bromo-5-methyl-4-oxo-2,3,4,5-tetrahydrobenzo[b][1,4]oxazepin-3-yl)-4-(pyridin-4-ylmethyl)-1H-pyrazole-1-carboxamide]
L929-CTG-recovery, L929, TNFa + zVAD (IC50) (L929 cells): 5027 | IC50 (U937 cells): 235 nM

CN1C(=O)[C@@H](NC(=O)n2cc(Oc3cccc(F)n3)cn2)COc2ccc(C#CC3CCOCC3)cc21 [I-111, (S)-4-((6-Fluoropyridin-2-yl)oxy)-N-(5-methyl-4-oxo-7-((tetrahydro-2H-pyran-4-yl)ethynyl)-2,3,4,5-tetrahydrobenzo[b][1,4]oxazepin-3-yl)-1H-pyrazole-1-carboxamide]
IC50 (L929 cells): 85200 nM | IC50 (U937 cells): 7270 nM

CN1C(=O)[C@@H](NC(=O)c2cc(Oc3ccccn3)ccn2)COc2ccc(C#CC3(O)COC3)cc21 [I-129, (S)—N-(7-((3-hydroxyoxetan-3-yl)ethynyl)-5-methyl-4-oxo-2,3,4,5-tetrahydrobenzo[b][1,4]oxazepin-3-yl)-4-(pyridin-2-yloxy)picolinamide]
IC50 (RIPK1): 2280 nM | IC50 (U937 cells): 1200 nM

CN1C(=O)[C@@H](NC(=O)c2cc(Cc3cocn3)ccn2)COc2ccc(C#CC3(O)COC3)cc21 [I-138, (S)—N-(7-((3-hydroxyoxetan-3-yl)ethynyl)-5-methyl-4-oxo-2,3,4,5-tetrahydrobenzo[b][1,4]oxazepin-3-yl)-4-(oxazol-4-ylmethyl)picolinamide]
IC50 (L929 cells): 106 nM | IC50 (U937 cells): 12.9 nM
